Measurements from PMC3753754, “Andrographis paniculata Extract and Andrographolide Modulate the Hepatic Drug Metabolism System and Plasma Tolbutamide Concentrations in Rats” (Evidence-based Complementary and Alternative Medicine : eCAM, 2013).

What was measured:
[1] = Plasma tolbutamide concentration in high-fat diet-induced obese mice; type: in vivo, C57BL/6 mice; settings: C57BL/6, mouse, 2 h after dosing 20 mg/kg oral tolbutamide, control obese mice (methyl cellulose vehicle)
Method: Eleven-month-old high-fat diet-fed (45% of energy from fat; Research Diet Inc., New Brunswick, NJ) C57BL/6 mice were obtained from the National Health Research Institute (Miaoli, Taiwan). Control mice were orally administered 0.5% methyl cellulose (10 mL/kg). […] After the 5th daily dose, the mice were deprived of food overnight. On day 6, a 20 mg/kg oral dose of tolbutamide, as a solution in Cremophor EL/ethanol/water (30/10/60, v/v/v), was administered to each mouse. Thirty minutes later, a 1 g/kg dose of glucose, as a solution in water, was administered orally according to the method described by Zong et al.. Serial blood samples were collected up to 8 h after the glucose dose from each mouse. The animals were then killed by exsanguination and the livers collected.
Tolbutamide was prepared in a solution of Cremophor EL/ethanol/water (30/10/60, v/v/v). […]
The HPLC system consisted of an Agilent 1100 series LC System (Palo Alto, CA) and an Agilent Zorbax Eclipse XDB-C8 column (3 μm, 3.0 mm × 150 mm), interfaced to an Agilent MSD mass spectrometer equipped with an electrospray ionization source. […] The positive ion of the testing compound was selected, and the peak size was measured. The area under the plasma tolbutamide concentration versus time curve (AUC) was calculated by using the trapezoidal method.

[2] = Pharmacokinetics of tolbutamide in control, APE-pretreated and andrographolide-pretreated rats; type: in vivo, Sprague-Dawley rats; settings: male, Sprague-Dawley, rat, plasma, control rats (methyl cellulose vehicle for 5 days), tolbutamide 20 mg/kg oral
Method: Seven-week-old male Sprague-Dawley rats cannulated in the jugular vein were purchased from the Bio LASCO Experimental Animal Center (Taipei, Taiwan). The animals were fed a standard rat diet and were randomly assigned into control, APE-treated, and andrographolide-treated groups (n = 5). Rats were housed in plastic cages in a room kept at 23 ± 1°C and 60 ± 5% relative humidity with a 12-hour light and dark cycle. Food and drinking water were available ad libitum. Control rats were orally administered methyl cellulose. […] After the 5th daily dose, rats were deprived of food overnight. On day 6, a 20 mg/kg oral dose of tolbutamide, as a solution in Cremophor EL (polyoxyl 35 hydrogenated castor oil, Sigma)/ethanol/water (30/10/60, v/v/v), was administered to each rat. After the administration of tolbutamide, serial blood samples were collected up to 12 h after dosing from each rat. The animals were then killed by exsanguination, and the livers were collected.
Tolbutamide was prepared in a solution of Cremophor EL/ethanol/water (30/10/60, v/v/v). After administration, blood samples (~200 μL) were collected from the tail vein of each rat at 0.25, 0.5, 1, 2, 4, 8, and 12 h after dosing. Plasma was separated from blood by centrifugation (4000 ×g for 20 min at 4°C). An aliquot of 50 μL plasma was mixed with 100 μL acetonitrile and then centrifuged at 10,000 ×g for 15 min at 4°C. The supernatant was used to determine the concentration of tolbutamide by LC/MS. Calibration standards of tolbutamide were prepared by serial dilution of a tolbutamide stock solution with blank plasma, yielding final concentrations of tolbutamide ranging from 1 to 300 μg/mL of plasma.
The HPLC system consisted of an Agilent 1100 series LC System (Palo Alto, CA) and an Agilent Zorbax Eclipse XDB-C8 column (3 μm, 3.0 mm × 150 mm), interfaced to an Agilent MSD mass spectrometer equipped with an electrospray ionization source. Column temperature was set at 25°C. The initial mobile phase composition was 30% acetonitrile containing 10 mM ammonium acetate (solvent A) and 70% of 0.1% formic acid (solvent B). The following gradient system was used: 30% A to 50% A (0-1 min), 50% A to 98% A (1–3 min), 98% A (3–9 min), 98% A to 30% A (9-10 min), and 30% A (10–15 min). The flow rate was 0.5 mL/min. Sample injection volume was 10 μL. The MS data acquisition was via selected ion monitoring. The positive ion of the testing compound was selected, and the peak size was measured. The area under the plasma tolbutamide concentration versus time curve (AUC) was calculated by using the trapezoidal method.

concentration at 2 h [1]: 124 ± 32 µg/mL
MRT [2]: 7.9 ± 1.6 h
AUC(0-t) ([2]; read-out: AUC0–12 h of plasma tolbutamide): 1390 ± 262 µg·h/mL
Cmax ([2]; read-out: C max of tolbutamide): 151 ± 21 µg/mL
Tmax ([2]; read-out: T max of tolbutamide): 1.6 ± 0.5 h
Compound: CCCCNC(=O)NS(=O)(=O)c1ccc(C)cc1 [tolbutamide]
